Experimental data taken from US6372693B1, “Substituted 2-(3-alkenyl-benzoyl)-cyclohexane-1,3-diones” (BASF Aktiengesellschaft, priority 1997, dated 2002).

Tests used:
Assay in all cases: greenhouse herbicidal test, post-emergence treatment
Format in all cases: in vivo
[1] = tested on: Chenopodium album; conditions: 0.5 or 0.25 kg/ha a.s., Chenopodium album (lambsquarters)
Description: (§1) The culture containers used were plastic flowerpots containing loamy sand with approximately 3.0% of humus as substrate. The seeds of the test plants were sown separately for each species.
(§2) For the purposes of post-emergence treatment, the test plants were grown to a plant height of from 3 to 15 cm, depending on the plant habit, and only then treated with the active ingredients which had been suspended or emulsified in water. To this end, the test plants were either sown directly and grown in the same containers, or they were first grown separately as seedlings and transplanted into the test containers a few days prior to treatment. The rate of application for the post-emergence treatment was 0.5 or 0.25 kg/ha a.s.
(§3) Depending on the species, the plants were kept at from 10-25° C. and 20-35° C., respectively. The test period extended over 2 to 4 weeks. During this time, the plants were tended, and their response to the individual treatments was evaluated.
(§4) Evaluation was carried out using a scale of from 0 to 100. 100 means no emergence of the plants, or complete destruction of at least the aerial parts, and 0 means no damage or normal course of growth.
(§5) The plants used in the greenhouse experiments belonged to the following species: […]

[2] = tested on: Polygonum persicaria; conditions: 0.5 or 0.25 kg/ha a.s., Polygonum persicaria (ladysthumb)
Description: as §1, §2, §3, §4, §5

[3] = tested on: Solanum nigrum; conditions: 0.5 or 0.25 kg/ha a.s., Solanum nigrum (black nightshade)
Description: as §1, §2, §3, §4, §5

[4] = tested on: Sinapis alba; conditions: 0.5 or 0.25 kg/ha a.s., Sinapis alba (white mustard)
Description: as §1, §2, §3, §4, §5

Measured: herbicidal action (control of the weed)

CC=Cc1c(Cl)ccc(C(=O)C2C(=O)CCCC2=O)c1Cl [Compound 2.1, 2-[2′,4′-Dichloro-3′-(prop-1″-en-1″-yl)benzoyl]-1,3-cyclo-hexanedione]
very good control: all assays above
